Measurements taken from patent US9340590B2 (priority 2011, dated 2016).
Like-named read-outs stand apart in the source and are kept apart here. Positions of bridges follow the written chain, without caps; N, C: chain ends. Non-standard residues stand in square brackets, D forms with d. Residues, ends and D or L forms follow the SMILES beside them. Cha = N[C@@H](CC1CCCCC1)C(=O)O; hLeu = CC(C)CC[C@H](N)C(=O)O

Tests used:
Experiment in all cases: cell-based
hNav1.7 = hNav1.7 (Homo sapiens, UniProt Q15858); format: cell-based; conditions: IonWorks Quattro, read-out: IWQ Use Nav1.7
hNav1.5 = hNav1.5 (Homo sapiens, UniProt Q14524); conditions: IonWorks Quattro, read-out: IWQ Use Nav1.5
hNav1.3 = hNav1.3 (Homo sapiens, UniProt Q9NY46); conditions: IonWorks Quattro, read-out: IWQ Use Nav1.3
Chain of hNav1.3 (Q9NY46 whole entry, looked up): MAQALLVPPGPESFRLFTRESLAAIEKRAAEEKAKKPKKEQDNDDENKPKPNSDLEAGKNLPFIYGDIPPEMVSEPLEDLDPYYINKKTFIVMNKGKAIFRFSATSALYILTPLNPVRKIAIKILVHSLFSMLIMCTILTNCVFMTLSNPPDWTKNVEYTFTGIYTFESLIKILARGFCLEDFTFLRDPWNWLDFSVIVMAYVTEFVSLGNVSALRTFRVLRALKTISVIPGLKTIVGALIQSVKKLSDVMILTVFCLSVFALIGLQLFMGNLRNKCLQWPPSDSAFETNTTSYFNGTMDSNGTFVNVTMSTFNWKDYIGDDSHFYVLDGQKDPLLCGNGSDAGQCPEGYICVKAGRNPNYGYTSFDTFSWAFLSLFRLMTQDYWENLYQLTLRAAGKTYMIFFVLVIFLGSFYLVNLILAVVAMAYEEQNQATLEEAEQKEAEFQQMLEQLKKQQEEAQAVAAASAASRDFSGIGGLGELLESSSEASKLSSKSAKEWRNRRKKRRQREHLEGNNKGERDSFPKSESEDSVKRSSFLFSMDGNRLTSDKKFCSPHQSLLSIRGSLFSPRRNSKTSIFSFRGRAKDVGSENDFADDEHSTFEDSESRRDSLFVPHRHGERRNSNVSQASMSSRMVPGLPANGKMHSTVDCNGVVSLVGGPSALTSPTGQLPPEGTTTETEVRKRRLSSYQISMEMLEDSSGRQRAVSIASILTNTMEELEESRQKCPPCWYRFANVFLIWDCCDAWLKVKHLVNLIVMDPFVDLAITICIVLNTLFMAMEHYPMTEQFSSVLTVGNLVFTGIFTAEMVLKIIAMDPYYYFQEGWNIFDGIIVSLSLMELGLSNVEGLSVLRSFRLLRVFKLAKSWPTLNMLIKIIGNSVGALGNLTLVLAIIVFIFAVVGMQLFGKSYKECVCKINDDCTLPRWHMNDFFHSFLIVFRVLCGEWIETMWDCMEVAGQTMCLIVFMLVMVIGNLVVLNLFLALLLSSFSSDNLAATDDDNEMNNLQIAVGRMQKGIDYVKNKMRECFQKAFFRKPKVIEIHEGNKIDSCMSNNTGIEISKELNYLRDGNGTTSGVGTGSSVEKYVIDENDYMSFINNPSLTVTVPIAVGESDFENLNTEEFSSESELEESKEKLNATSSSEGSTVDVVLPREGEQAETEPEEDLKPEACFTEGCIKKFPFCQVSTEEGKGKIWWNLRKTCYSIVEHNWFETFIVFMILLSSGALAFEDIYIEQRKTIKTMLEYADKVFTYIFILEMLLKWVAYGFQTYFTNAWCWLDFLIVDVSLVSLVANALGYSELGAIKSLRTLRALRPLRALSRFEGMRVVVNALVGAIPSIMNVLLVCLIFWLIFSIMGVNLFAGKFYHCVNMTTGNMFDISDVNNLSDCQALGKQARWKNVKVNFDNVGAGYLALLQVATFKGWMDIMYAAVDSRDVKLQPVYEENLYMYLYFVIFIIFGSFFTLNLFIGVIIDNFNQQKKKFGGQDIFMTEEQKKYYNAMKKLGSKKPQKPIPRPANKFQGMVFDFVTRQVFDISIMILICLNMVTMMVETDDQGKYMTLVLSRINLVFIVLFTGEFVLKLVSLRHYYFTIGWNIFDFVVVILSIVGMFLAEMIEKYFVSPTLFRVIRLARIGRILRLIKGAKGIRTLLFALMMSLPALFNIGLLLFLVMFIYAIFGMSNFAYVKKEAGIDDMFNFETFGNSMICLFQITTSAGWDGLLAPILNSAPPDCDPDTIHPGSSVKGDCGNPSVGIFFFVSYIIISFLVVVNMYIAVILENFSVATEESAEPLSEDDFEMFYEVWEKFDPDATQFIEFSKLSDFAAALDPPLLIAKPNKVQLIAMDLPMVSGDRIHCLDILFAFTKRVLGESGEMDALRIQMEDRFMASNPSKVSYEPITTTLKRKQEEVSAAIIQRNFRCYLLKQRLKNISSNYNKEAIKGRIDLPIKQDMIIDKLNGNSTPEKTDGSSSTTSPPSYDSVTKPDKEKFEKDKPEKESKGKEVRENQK

Chain of hNav1.7 (Q15858 whole entry, looked up): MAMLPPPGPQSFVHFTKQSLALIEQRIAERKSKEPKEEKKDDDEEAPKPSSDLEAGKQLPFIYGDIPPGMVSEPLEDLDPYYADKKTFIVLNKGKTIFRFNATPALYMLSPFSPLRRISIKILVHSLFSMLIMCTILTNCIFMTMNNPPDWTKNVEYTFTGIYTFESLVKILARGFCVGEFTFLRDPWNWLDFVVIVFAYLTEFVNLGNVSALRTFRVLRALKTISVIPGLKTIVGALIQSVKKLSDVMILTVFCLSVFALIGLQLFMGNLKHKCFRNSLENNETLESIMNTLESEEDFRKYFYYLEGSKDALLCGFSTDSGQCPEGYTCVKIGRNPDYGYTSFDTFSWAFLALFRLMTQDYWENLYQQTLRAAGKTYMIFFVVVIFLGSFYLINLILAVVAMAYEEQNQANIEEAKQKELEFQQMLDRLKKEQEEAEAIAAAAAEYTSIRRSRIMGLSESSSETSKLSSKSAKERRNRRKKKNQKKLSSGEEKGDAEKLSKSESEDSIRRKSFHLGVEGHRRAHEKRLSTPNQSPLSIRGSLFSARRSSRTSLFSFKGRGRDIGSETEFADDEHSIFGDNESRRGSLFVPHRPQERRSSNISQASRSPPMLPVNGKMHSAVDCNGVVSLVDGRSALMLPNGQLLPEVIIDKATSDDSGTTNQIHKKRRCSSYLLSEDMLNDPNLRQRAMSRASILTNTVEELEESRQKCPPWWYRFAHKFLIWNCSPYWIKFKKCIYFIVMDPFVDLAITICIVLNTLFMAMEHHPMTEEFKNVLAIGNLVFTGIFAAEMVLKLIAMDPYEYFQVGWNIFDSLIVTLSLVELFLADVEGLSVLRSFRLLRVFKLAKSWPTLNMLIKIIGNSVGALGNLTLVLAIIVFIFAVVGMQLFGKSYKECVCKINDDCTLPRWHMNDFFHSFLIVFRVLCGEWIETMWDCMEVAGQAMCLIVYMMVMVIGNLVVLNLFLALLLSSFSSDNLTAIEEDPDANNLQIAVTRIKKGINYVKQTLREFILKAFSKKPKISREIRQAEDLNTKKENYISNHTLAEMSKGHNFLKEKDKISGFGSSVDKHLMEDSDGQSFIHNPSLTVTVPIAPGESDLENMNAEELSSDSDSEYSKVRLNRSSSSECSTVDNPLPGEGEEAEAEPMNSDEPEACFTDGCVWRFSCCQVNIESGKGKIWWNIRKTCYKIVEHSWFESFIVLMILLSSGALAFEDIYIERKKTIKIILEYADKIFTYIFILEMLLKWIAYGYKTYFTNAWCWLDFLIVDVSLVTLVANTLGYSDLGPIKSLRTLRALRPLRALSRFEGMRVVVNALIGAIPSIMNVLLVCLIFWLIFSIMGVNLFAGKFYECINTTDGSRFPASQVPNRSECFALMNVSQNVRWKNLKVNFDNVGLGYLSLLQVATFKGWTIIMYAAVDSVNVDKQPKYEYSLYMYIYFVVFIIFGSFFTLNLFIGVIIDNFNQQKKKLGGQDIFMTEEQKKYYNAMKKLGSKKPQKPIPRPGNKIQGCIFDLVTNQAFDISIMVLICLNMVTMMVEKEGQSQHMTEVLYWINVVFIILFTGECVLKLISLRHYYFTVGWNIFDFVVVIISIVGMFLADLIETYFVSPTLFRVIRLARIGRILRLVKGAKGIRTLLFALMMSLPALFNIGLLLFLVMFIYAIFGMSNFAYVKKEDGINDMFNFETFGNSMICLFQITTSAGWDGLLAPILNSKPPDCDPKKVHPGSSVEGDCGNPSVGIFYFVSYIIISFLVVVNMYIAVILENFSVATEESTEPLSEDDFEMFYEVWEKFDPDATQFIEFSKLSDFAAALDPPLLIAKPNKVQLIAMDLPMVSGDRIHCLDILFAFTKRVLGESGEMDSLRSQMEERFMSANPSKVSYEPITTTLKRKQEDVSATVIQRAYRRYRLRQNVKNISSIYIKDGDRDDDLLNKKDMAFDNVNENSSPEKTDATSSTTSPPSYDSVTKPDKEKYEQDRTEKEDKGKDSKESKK

Structure (SMILES): CC[C@H](C)[C@@H]1NC(=O)[C@@H]2CSSC[C@@H]3NC(=O)[C@H](C(C)C)NC(=O)[C@H](CC(C)C)NC(=O)[C@H](CC(N)=O)NC(=O)[C@@H]4CCCN4C(=O)[C@H](CCCNC(=N)N)NC(=O)[C@H](CSSC[C@H](NC(=O)[C@@H](N)CC(=O)O)C(=O)N[C@@H](CC(C)C)C(=O)NCC(=O)N[C@@H](Cc4ccccc4)C(=O)N[C@@H](CCSC)C(=O)N[C@@H](CCCNC(=N)N)C(=O)N[C@@H](CCCCN)C(=O)N2)NC(=O)[C@H](CSSC[C@@H](C(=O)N[C@@H](CCCCN)C(=O)N[C@@H](Cc2ccc(O)cc2)C(=O)N[C@H](C(=O)N[C@@H](Cc2ccccc2)C(N)=O)C(C)C)NC(=O)[C@H](Cc2c[nH]c4ccccc24)NC(=O)[C@H](CCCCN)NC(=O)[C@H](Cc2c[nH]cn2)NC(=O)[C@H](CCC(N)=O)NC(=O)[C@H](CCCNC(=N)N)NC(=O)[C@H](CO)NC3=O)NC(=O)[C@H](CCCCN)NC(=O)[C@H](CC(=O)O)NC(=O)[C@H](CC(N)=O)NC(=O)[C@H](CC(=O)O)NC(=O)[C@@H]2CCCN2C1=O [compound 339] (H-DCLGFMRKCIPDNDKCCRPNLVCSRQHKWCKYVF-NH2; disulfide 2-17, 9-23, 16-30)
- IC50 (hNav1.7; Table 22, use, […]): 140 nM
- IC50 (hNav1.5; Table 22, use, […]): 17900 nM
- IC50 (hNav1.3; Table 22, use, […]): 90 nM

Structure (SMILES): CC(C)C[C@@H]1NC(=O)[C@@H](NC(=O)[C@@H](N)CC(=O)O)CSSC[C@@H]2NC(=O)[C@@H]3CSSC[C@@H](C(=O)N[C@@H](CCCCN)C(=O)N[C@@H](Cc4ccc(O)cc4)C(=O)N[C@H](C(=O)N[C@@H](Cc4ccccc4)C(N)=O)C(C)C)NC(=O)[C@H](Cc4c[nH]c5ccccc45)NC(=O)[C@H](CCCCN)NC(=O)[C@H](Cc4c[nH]cn4)NC(=O)[C@H]([C@@H](C)O)NC(=O)[C@H](CCCNC(=N)N)NC(=O)[C@H](CO)NC(=O)[C@H](CSSC[C@H](NC(=O)[C@H](CCCCN)NC(=O)[C@H](CCCNC(=N)N)NC(=O)[C@H](Cc4ccccc4)NC(=O)[C@H](C)NC(=O)CNC1=O)C(=O)N[C@@H](CCC(=O)O)C(=O)N1CCC[C@H]1C(=O)N[C@@H](CC(=O)O)C(=O)N[C@@H](CC(N)=O)C(=O)N[C@@H](CC(=O)O)C(=O)N[C@@H](CCCCN)C(=O)N3)NC(=O)[C@H](C(C)C)NC(=O)[C@H](CC(C)C)NC(=O)[C@H](CC(N)=O)NC(=O)[C@@H]1CCCN1C(=O)[C@H](CCCNC(=N)N)NC2=O [compound 724] (H-DCLGAFRKCEPDNDKCCRPNLVCSRTHKWCKYVF-NH2; disulfide 2-17, 9-23, 16-30)
- IC50 (hNav1.7; use-dependent block, hNav1.7): 380 nM
- IC50 (hNav1.5; use-dependent block, hNav1.5): 36000 nM
- IC50 (hNav1.3; use-dependent block, hNav1.3): 320 nM

Structure (SMILES): CC[C@H](C)[C@@H]1NC(=O)[C@@H]2CSSC[C@@H]3NC(=O)[C@H](C(C)C)NC(=O)[C@H](CC(C)C)NC(=O)[C@H](CC(N)=O)NC(=O)[C@@H]4CCCN4C(=O)[C@H](CCCNC(=N)N)NC(=O)[C@H](CSSC[C@H](NC(=O)[C@@H](N)CC(=O)O)C(=O)N[C@@H](CC(C)C)C(=O)NCC(=O)N[C@@H](Cc4ccccc4Cl)C(=O)N[C@@H](CCSC)C(=O)N[C@@H](CCCNC(=N)N)C(=O)N[C@@H](CCCCN)C(=O)N2)NC(=O)[C@H](CSSC[C@@H](C(=O)N[C@@H](CCCCN)C(=O)N[C@@H](Cc2ccc(O)cc2)C(=O)N[C@H](C(=O)N[C@@H](Cc2ccccc2)C(N)=O)C(C)C)NC(=O)[C@H](Cc2c[nH]c4ccccc24)NC(=O)[C@H](CCCCN)NC(=O)[C@H](Cc2c[nH]cn2)NC(=O)[C@H]([C@@H](C)O)NC(=O)[C@H](CCCNC(=N)N)NC(=O)[C@H](CO)NC3=O)NC(=O)[C@H](CCCCN)NC(=O)[C@H](CC(=O)O)NC(=O)[C@H](CC(N)=O)NC(=O)[C@H](CC(=O)O)NC(=O)[C@@H]2CCCN2C1=O [compound 689]
- IC50 (hNav1.7; use-dependent protocol, hNav1.7): 130 nM
- IC50 (hNav1.5; use-dependent protocol, hNav1.5): > 5000 nM
- IC50 (hNav1.3; use-dependent protocol, hNav1.3): 110 nM

Structure (SMILES): CC[C@H](C)[C@@H]1NC(=O)[C@@H]2CSSC[C@@H]3NC(=O)[C@H](C(C)C)NC(=O)[C@H](CC(C)C)NC(=O)[C@H](CC(N)=O)NC(=O)[C@@H]4CCCN4C(=O)[C@H](CCCNC(=N)N)NC(=O)[C@H](CSSC[C@H](NC(=O)[C@@H](N)CC(=O)O)C(=O)N[C@@H](CC(C)C)C(=O)NCC(=O)N[C@@H](CCC(C)C)C(=O)N[C@@H](Cc4ccccc4)C(=O)N[C@@H](CCCNC(=N)N)C(=O)N[C@@H](CCCCN)C(=O)N2)NC(=O)[C@H](CSSC[C@@H](C(=O)N[C@@H](CCCCN)C(=O)N[C@@H](Cc2ccc(O)cc2)C(=O)N[C@H](C(=O)N[C@@H](Cc2ccccc2)C(N)=O)C(C)C)NC(=O)[C@H](Cc2c[nH]c4ccccc24)NC(=O)[C@H](CCCCN)NC(=O)[C@H](Cc2c[nH]cn2)NC(=O)[C@H]([C@@H](C)O)NC(=O)[C@H](CCCNC(=N)N)NC(=O)[C@H](CO)NC3=O)NC(=O)[C@H](CCCCN)NC(=O)[C@H](CC(=O)O)NC(=O)[C@H](CC(N)=O)NC(=O)[C@H](CC(=O)O)NC(=O)[C@@H]2CCCN2C1=O [compound 610] (H-DCLG[hLeu]FRKCIPDNDKCCRPNLVCSRTHKWCKYVF-NH2; disulfide 2-17, 9-23, 16-30)
- IC50 (hNav1.7; use-dependent block, hNav1.7): 11 nM
- IC50 (hNav1.5; use-dependent block, hNav1.5): 8200 nM
- IC50 (hNav1.3; use-dependent block, hNav1.3): 41 nM

Structure (SMILES): CC[C@H](C)[C@@H]1NC(=O)[C@@H]2CSSC[C@@H]3NC(=O)[C@H](C(C)C)NC(=O)[C@H](CC(C)C)NC(=O)[C@H](CC(N)=O)NC(=O)[C@@H]4CCCN4C(=O)[C@H](CCCNC(=N)N)NC(=O)[C@H](CSSC[C@H](NC(=O)[C@@H](N)CC(=O)O)C(=O)N[C@@H](CC(C)C)C(=O)NCC(=O)N[C@@H](Cc4ccccc4)C(=O)N[C@@H](CCSC)C(=O)N[C@@H](CCCNC(=N)N)C(=O)N[C@@H](CCCCN)C(=O)N2)NC(=O)[C@H](CSSC[C@@H](C(=O)N[C@@H](CCCCN)C(=O)N[C@@H](CC2CCCCC2)C(=O)N[C@H](C(=O)N[C@@H](Cc2ccccc2)C(N)=O)C(C)C)NC(=O)[C@H](Cc2c[nH]c4ccccc24)NC(=O)[C@H](CCCCN)NC(=O)[C@H](Cc2c[nH]cn2)NC(=O)[C@H]([C@@H](C)O)NC(=O)[C@H](CCCNC(=N)N)NC(=O)[C@H](CO)NC3=O)NC(=O)[C@H](CCCCN)NC(=O)[C@H](CC(=O)O)NC(=O)[C@H](CC(N)=O)NC(=O)[C@H](CC(=O)O)NC(=O)[C@@H]2CCCN2C1=O [compound 375] (H-DCLGFMRKCIPDNDKCCRPNLVCSRTHKWCK[Cha]VF-NH2; disulfide 2-17, 9-23, 16-30)
- IC50 (hNav1.7; Table 25, use, […]): 50 nM
- IC50 (hNav1.5; Table 25, use, […]): 8880 nM
- IC50 (hNav1.3; Table 25, use, […]): 20 nM

Structure (SMILES): CC[C@H](C)[C@@H]1NC(=O)[C@@H]2CSSC[C@@H]3NC(=O)[C@H](C(C)C)NC(=O)[C@H](CC(C)C)NC(=O)[C@H](CC(N)=O)NC(=O)[C@@H]4CCCN4C(=O)[C@H](CCCNC(=N)N)NC(=O)[C@H](CSSC[C@H](NC(=O)[C@@H](N)CC(=O)O)C(=O)N[C@@H](CC(C)C)C(=O)NCC(=O)N[C@@H](Cc4ccccc4)C(=O)N[C@@H](CCSC)C(=O)N[C@@H](CCCNC(=N)N)C(=O)N[C@@H](CCCCN)C(=O)N2)NC(=O)[C@H](CSSC[C@@H](C(=O)N[C@@H](CCCCN)C(=O)N[C@@H](Cc2ccc(O)cc2)C(=O)N[C@H](C(=O)N[C@@H](Cc2ccccc2)C(N)=O)C(C)C)NC(=O)[C@H](Cc2c[nH]c4ccccc24)NC(=O)[C@H](CCCCN)NC(=O)[C@H](Cc2cnc[nH]2)NC(=O)[C@H]([C@@H](C)O)NC(=O)[C@H](CCCNC(=N)N)NC(=O)[C@H](CO)NC3=O)NC(=O)[C@H](CCCCN)NC(=O)[C@H](CC(=O)O)NC(=O)[C@H](CC(N)=O)NC(=O)[C@H](Cc2c[nH]c3ccccc23)NC(=O)[C@@H]2CCCN2C1=O [compound 172] (H-DCLGFMRKCIPWNDKCCRPNLVCSRTHKWCKYVF-NH2; disulfide 2-17, 9-23, 16-30)
- IC50 (hNav1.7; Use): 50 nM
- IC50 (hNav1.5; Use): 8040 nM
- IC50 (hNav1.3; Use): 40 nM

Structure (SMILES): CC[C@H](C)[C@@H]1NC(=O)[C@@H]2CSSC[C@@H]3NC(=O)[C@H](C(C)C)NC(=O)[C@H](CC(C)C)NC(=O)[C@H](Cc4ccc(O)cc4)NC(=O)[C@@H]4CCCN4C(=O)[C@H](CCCNC(=N)N)NC(=O)[C@H](CSSC[C@H](NC(=O)[C@@H](N)CC(=O)O)C(=O)N[C@@H](CC(C)C)C(=O)NCC(=O)N[C@@H](Cc4ccccc4)C(=O)N[C@@H](CCSC)C(=O)N[C@@H](CCCNC(=N)N)C(=O)N[C@@H](CCCCN)C(=O)N2)NC(=O)[C@H](CSSC[C@@H](C(=O)N[C@@H](CCCCN)C(=O)N[C@@H](Cc2ccc(O)cc2)C(=O)N[C@H](C(=O)N[C@@H](Cc2ccccc2)C(N)=O)C(C)C)NC(=O)[C@H](Cc2c[nH]c4ccccc24)NC(=O)[C@H](CCCCN)NC(=O)[C@H](Cc2c[nH]cn2)NC(=O)[C@H]([C@@H](C)O)NC(=O)[C@H](CCCNC(=N)N)NC(=O)[C@H](CO)NC3=O)NC(=O)[C@H](CCCCN)NC(=O)[C@H](CC(=O)O)NC(=O)[C@H](CC(N)=O)NC(=O)[C@H](CC(=O)O)NC(=O)[C@@H]2CCCN2C1=O [compound 200] (H-DCLGFMRKCIPDNDKCCRPYLVCSRTHKWCKYVF-NH2; disulfide 2-17, 9-23, 16-30)
- IC50 (hNav1.7; Use): 116 nM
- IC50 (hNav1.5; Use): 9050 nM
- IC50 (hNav1.3; Use): 55 nM
